Experimental data published in PubChem BioAssay (NCI).
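Values below derive from 48-hour exposures of cells grown in 96-well plates, with endpoints linearly interpolated between the two concentrations bracketing the appropriate inhibition level. GI50 marks 50% less growth. TGI: concentration producing complete growth inhibition.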

Legend:
Experiment in all cases: NCI-60 cell line screen, 48 h
BT-549 breast = tested on: BT-549 breast
MDA-MB-435 = tested on: MDA-MB-435
UACC-62 melanoma = tested on: UACC-62 melanoma
HL-60(TB) leukemia = tested on: HL-60(TB) leukemia
T-47D breast = tested on: T-47D breast
MALME-3M melanoma = tested on: MALME-3M melanoma
OVCAR-5 ovarian = tested on: OVCAR-5 ovarian
SNB-75 CNS = tested on: SNB-75 CNS
DU-145 prostate = tested on: DU-145 prostate
MOLT-4 leukemia = tested on: MOLT-4 leukemia

SMILES	GI50 (BT-549 breast) [µM]	TGI (BT-549 breast) [µM]	GI50 (MDA-MB-435) [µM]	TGI (MDA-MB-435) [µM]	GI50 (UACC-62 melanoma) [µM]	TGI (UACC-62 melanoma) [µM]	GI50 (HL-60(TB) leukemia) [µM]	TGI (HL-60(TB) leukemia) [µM]	GI50 (T-47D breast) [µM]	TGI (T-47D breast) [µM]	GI50 (MALME-3M melanoma) [µM]	TGI (MALME-3M melanoma) [µM]	GI50 (OVCAR-5 ovarian) [µM]	TGI (OVCAR-5 ovarian) [µM]	GI50 (SNB-75 CNS) [µM]	TGI (SNB-75 CNS) [µM]	GI50 (DU-145 prostate) [µM]	TGI (DU-145 prostate) [µM]	GI50 (MOLT-4 leukemia) [µM]	TGI (MOLT-4 leukemia) [µM]
COc1ccc(-c2ccc(/C=N/n3c(COc4ccccc4Cl)nn(CN4CCN(C)CC4)c3=S)o2)c([N+](=O)[O-])c1	17.2	43	18.3	40.9	19.2	44.9	32.8	65.7	22.1	77.1	20.9	49.2	21.6	46.6	20.3	77.3				
CCOc1ccc([C@@H]2[C@@H](Oc3ccccc3)C(=O)N2c2cc(OC)c(OC)c(OC)c2)cc1	0.0681	> 100			0.0427	> 100	0.0263	0.0691	9.48	> 100	> 100	> 100	0.47	> 100	0.037	> 100	0.218	> 100	0.17	> 100
NC(N)=NS(=O)(=O)c1ccc(NCc2c3ccccc3nc3ccccc23)cc1		34.3		> 100		35.2		10.9		23.5		49.7		> 100		9.02		> 100		> 16.5
COc1ccccc1-n1c(-c2cc(O)ccc2C)cn2c3c(=O)[nH]c(=O)n(C)c3nc12	20.5	> 100	> 100	> 100	> 100	> 100	> 100	> 100	42.4	> 100	> 100	> 100	28.1	> 100	0.129	1.12	7.04	> 100	85.9	> 100
CC(=O)c1c(C(F)(F)F)n([O-])c2ccc(Cl)cc2[n+]1=O	1.14	2.65	2.8	9.94	0.916	3.45	0.681	4.65	2.31	> 40.4	1.84	3.73	2.74	18.6	1.69	8.38	0.158	0.576		1.54
NS(=O)(=O)c1cc2c(cc1Cl)NC(Cc1ccccc1)NS2(=O)=O (configuration not stated)		> 100		> 100		> 100				> 100		> 100		> 100		> 100		> 100		
C=C1C[C@](OC)([C@H](O)C(=O)N[C@@H](OC)[C@@H]2C[C@@H](O)C(C)(C)[C@@H](C[C@@H](COC)OC)O2)O[C@H](C)[C@@H]1C	0.00118	0.00326	0.00162	0.00507	0.00153	0.00524	0.00411	> 1	0.000814	0.00548	0.000693	0.00343	0.00182	0.00689	0.00273	0.00825	0.00145	0.00496	0.00437	> 1
CCC(C)n1cc(C)c2c(C(=O)NCc3c(C)cc(C)[nH]c3=O)cc(Br)cc21 (configuration not stated)	41.8	> 100	27.1	> 100	29.4	> 100	24.3	58.4	20	73.3	36.2	99.7	> 100	> 100	43.5	> 100	76.8	> 100	26.2	71.6
CN1CCCNc2c(c(=O)c2=O)NCCCN(C)CCCNc2c(c(=O)c2=O)NCCCN(C)CCCNc2c(c(=O)c2=O)NCCCN(C)CCCNc2c(c(=O)c2=O)NCCCN(C)CCCNc2c(c(=O)c2=O)NCCCN(C)CCCNc2c(c(=O)c2=O)NCCCN(C)CCCNc2c(c(=O)c2=O)NCCC1	5.69	19.8	2.68	11.5	2.39	16.8	5.82	32.4	2.06	7.74	1.11	3.54	9.32	20.6	9.48	19.3	1.68	5.9	9.7	45.2
C1CCN(CCC2CCCCN2)CC1 (configuration not stated)		> 100		> 100		> 100		> 100		> 100		> 100		> 100		> 100		> 100		> 100
COc1ccc(Nn2c(SCC(=O)Nc3nc(-c4ccc(Cl)cc4)cs3)nc(C)c2C)cc1	6.46	82	3.22	> 100	3.62	> 100	2.24	59.1	1.23	8.04	2.9	> 100	> 100	> 100	4.8	> 100	4.06	> 100	2.54	> 100
CC(C)CCOc1ccc(-c2n[nH]c(C(F)(F)F)c2-c2cncc(C#N)c2)c(O)c1	2.57	9.51	3.6	32.6	1.22	5.38	1.98	5.47	1.56	6.54	1.85	6.56	3.21	> 100	2.77	14.6	4.18	46.3	2.47	12.7
CCN(CC)c1cc(/C=C/c2ccc(OC)c(OC)c2)nc2cc(F)c(F)cc12	2.03	5.28	> 100	> 100	7.04	> 100	12.2	31.3	3.38	18.4			20.3	> 100	1.39	2.89	31.6	> 100	14.2	33.6
O=[N+]([O-])c1ccc(-c2nc(-c3ccccc3)c(-c3ccccc3)n2-c2ccccc2)cc1	2.16	6.53	2.5	7.63	2.18	8.53	2.41	5.83	2.19	7.29	2.78	8.58	4.7	28.7	2.64	22	2.72	12.2	2.28	11.5
OCCCN=NNc1ccc(-c2nc3ccccc3[nH]2)cc1	34.4	96.8	3.44	16.1	17.6	50.8	25.2	96.2	2.15	6.65			> 100	> 100	6.07	38.6	4.12	> 100	43.6	> 100
Cc1cccc(Oc2nccc(-c3c(-c4ccc(F)cc4)ncn3C3CCNCC3)n2)c1C	10.9	> 19.6	6.52	> 16.1	4.94	9.96	9.38	> 22.4	4.92	10.6	4.68	9.58	8.62	> 25	5.58	> 17.5	> 11.4	> 16.3	7.17	17.6
CC(C)(C)c1nc2c(o1)C(=O)c1ccccc1C2=O		2.84		0.327		1.58		1.78		3.97		1.48		4.85		6.7		2.57		16.9
Cc1cc2cc3cc(C)c(N(C)C)cc3nc2cc1N(C)C	4.26	15.6	2.77	11.8	2.97	17.2	0.34	> 100	1.6	> 100	3.53	19	8.37	> 100	2.35	20.1	3.46	25.8	3.29	> 100
CC(=O)OC1CC(n2cc(F)c(=O)[nH]c2=O)OC1CO (configuration not stated)		> 100		> 100		> 22.4		> 100		> 100		> 100		> 100		> 100		> 100		> 100
CSc1cnn(CCC#N)c(=O)n1		> 100		> 100		> 100		> 100		> 100		> 100		> 100		> 100		> 100		> 100
O=P(O)(O)c1ccccc1 (tested in a mixture with another compound)		> 100		> 100		> 100		> 100		> 100		> 100		> 100		> 100		> 100		
CCSCC(N)C(=O)O (configuration not stated)		> 100		> 100		> 100		> 100		> 100		> 100		> 100		> 100		> 100		
Cc1ccc(NC(=O)NC(=O)c2ccc([N+](=O)[O-])cc2[N+](=O)[O-])cc1Oc1ncc(Cl)cn1		32.7		0.542		21		0.584		40.6		22.3				2.4		> 100		49.8
O=C1C(Br)=CC2(C=C1Br)CCN=c1c2c(O)c2nc3ccccc3c3ccnc1c23	5.83	12.2	1.18	3.09	3.31	10.7	2.07	5.59	1.13	3.76	1.41	3.44	7.22	17.6			1.95	24.8	0.143	2.67
COC(=O)c1ccc2c(c1)nc(-c1cc3ccccc3[nH]c1=O)n2-c1cc(C(C)(C)C)[nH]n1	4.88	66.2					2.17	> 100	> 100	> 100	2.63	> 100			5.42	41.5	2.55	> 100	0.793	> 100
CS(=O)CCCCCN=C=S (configuration not stated)	3.07	11.5	3.57	15.8	2.93	12.5			2.32	7.56	4.12	18.6	10.6	25.5	3.01	16.5	2.81	10.6		
CCCCCCCCCCCCCCCCCC1=NCCN1CS(=O)(=O)O	19.5	37.7	2.84	9.82	16.9	35.1	14.3	39.9	20	43.1			15.4	32.7	17.2	44.9	5.19	17.2	10.2	38.6
CCOC(=O)c1sc2nc3sc(N=Nc4ccc(Cl)cc4)c(O)n3c(=S)c2c1C			35.2	> 100	13	32.5	> 100	> 100	0.609	21.9	34.9	95	36.9	> 100	15.5	> 100	31.2	> 100	> 100	> 100
NC(=O)C1=NNc2ccccc2C(=O)N1c1ccccc1		> 100		> 100		> 100				> 100		> 100		> 100		> 100		> 100		> 100
